Patent publication US20190292179A1 (BRISTOL-MYERS SQUIBB COMPANY, priority 2016, published 2019)
Structures can show the parent of a compound that is named as a salt.

Tests used:
[1] = target: T1, HIS-TGFβR1 T204D (Homo sapiens, UniProt P36897, T204D); assay: HTRF probe-displacement assay with HIS-TGFβR1 T204D; assay type: binding; conditions: 1 nM HIS-TGFβR1 T204D, labeled probe at Kd, 1 hour at room temperature
T1 sequence (P36897 34-503 T204D): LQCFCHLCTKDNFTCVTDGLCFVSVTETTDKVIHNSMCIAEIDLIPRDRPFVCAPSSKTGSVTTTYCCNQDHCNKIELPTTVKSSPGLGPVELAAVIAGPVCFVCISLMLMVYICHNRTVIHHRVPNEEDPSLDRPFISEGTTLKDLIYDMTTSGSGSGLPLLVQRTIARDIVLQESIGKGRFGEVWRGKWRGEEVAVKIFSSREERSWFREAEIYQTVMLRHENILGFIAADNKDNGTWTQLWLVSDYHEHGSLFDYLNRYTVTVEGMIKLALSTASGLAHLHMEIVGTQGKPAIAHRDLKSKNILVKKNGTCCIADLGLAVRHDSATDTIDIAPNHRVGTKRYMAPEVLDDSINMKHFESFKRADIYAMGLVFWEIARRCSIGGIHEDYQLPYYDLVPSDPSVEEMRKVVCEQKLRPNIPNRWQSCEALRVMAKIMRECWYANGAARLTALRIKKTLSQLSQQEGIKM
Summary of the method: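 Binding read as HTRF probe displacement with 1 nM HIS-tagged kinase, 0.2 nM anti-HIS antibody, labelled probe at Kd and 0.5% DMSO, 1 h at room temperature (Ex 340, Em 520/495 nm). Eleven-point dose response normalised to no-enzyme and vehicle controls; IC50 from non-linear regression.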

[2] = target: HIS-TGFβR2 WT (Homo sapiens, UniProt P37173); assay: HTRF probe-displacement assay with HIS-TGFβR2 WT; assay type: binding; conditions: 1 nM HIS-TGFβR2 WT, labeled probe at Kd, 1 hour at room temperature
Description: The reaction is incubated for 1 hour at room temperature and the HTRF signal was measured on an Envision plate reader (Ex: 340 nm; Em: 520 nm/495 nm). Inhibition data were calculated by comparison to no enzyme control reactions for 100% inhibition and vehicle-only reactions for 0% inhibition. The final concentration of reagents in the assay are 1 nM HIS-TGFβR1 T204D or HIS-TGFβR2 WT, 0.2 nM anti-HIS detection antibody, labeled small molecule probe (at Kd) and 0.5% DMSO. Dose response curves were generated to determine the concentration required inhibiting 50% of kinase activity (IC50). Compounds were dissolved at 10 mM in dimethylsulfoxide (DMSO) and evaluated at eleven concentrations. IC50 values were derived by non-linear regression analysis.

Chain of HIS-TGFβR2 WT (P37173 23-567): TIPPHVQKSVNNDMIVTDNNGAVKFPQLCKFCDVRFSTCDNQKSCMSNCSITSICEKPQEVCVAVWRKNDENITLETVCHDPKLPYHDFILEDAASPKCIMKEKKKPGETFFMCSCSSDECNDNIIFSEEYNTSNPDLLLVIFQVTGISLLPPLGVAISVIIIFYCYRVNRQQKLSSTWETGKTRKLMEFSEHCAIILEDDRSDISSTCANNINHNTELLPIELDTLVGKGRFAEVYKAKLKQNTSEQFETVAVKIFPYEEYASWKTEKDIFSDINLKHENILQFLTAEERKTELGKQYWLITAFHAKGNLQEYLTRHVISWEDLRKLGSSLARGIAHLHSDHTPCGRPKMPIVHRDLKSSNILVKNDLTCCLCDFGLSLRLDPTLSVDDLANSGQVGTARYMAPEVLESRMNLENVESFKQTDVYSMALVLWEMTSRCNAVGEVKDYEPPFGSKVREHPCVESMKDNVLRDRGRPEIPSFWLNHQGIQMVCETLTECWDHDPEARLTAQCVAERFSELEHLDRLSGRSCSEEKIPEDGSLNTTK

Structure (SMILES)	IC50 [1] [µM]	IC50 [2] [µM]
Fc1ccc(-c2n[nH]cc2-c2ccc3nccn3n2)cc1 [Example 55, 6-(3-(4-fluorophenyl)-1H-pyrazol-4-yl)imidazo[1,2-b]pyridazine]	0.006	4.93
Cc1cccc(-c2nn(CC(F)F)cc2-c2ccc3ncc(C#N)n3c2)n1 [Example 27, 6-(1-(2,2-difluoroethyl)-3-(6-methylpyridin-2-yl)-1H-pyrazol-4-yl)imidazo[1,2-a]pyridine-3-carbonitrile]	0.003	11.4
Cc1cccc(-c2n[nH]c(C(C)C)c2-c2ccc3nccn3c2)n1 [Example 118, 6-(5-isopropyl-3-(6-methylpyridin-2-yl)-1H-pyrazol-4-yl)imidazo[1,2-a]pyridine]	0.001	2.69
Fc1ccc(-c2n[nH]c(C3CC3)c2-c2ccc3nccn3n2)cc1 [Example 87, 6-(5-cyclopropyl-3-(4-fluorophenyl)-1H-pyrazol-4-yl)imidazo [1,2-b]pyridazine]	0.002	6.9
Cc1[nH]nc(-c2cccc(F)n2)c1-c1ccc2ncc(C#N)n2c1 [Example 66, 6-(3-(6-fluoropyridin-2-yl)-5-methyl-1H-pyrazol-4-yl)imidazo [1,2-a]pyridine-3-carbonitrile]	0.001	0.277
NC(=O)c1cnc2ccc(-c3c(-c4ccc(F)cc4)n[nH]c3C(F)(F)F)cn12 [Example 106, 6-(3-(4-fluorophenyl)-5-(trifluoromethyl)-1H-pyrazol-4-yl)imidazo[1,2-a]pyridine-3-carboxamide]	0.001	6.66
NC(=O)c1cnc2ccc(-c3c[nH]nc3-c3ccc(Cl)cc3)cn12 [Example 47, 6-(3-(4-chlorophenyl)-1H-pyrazol-4-yl)imidazo[1,2-a]pyridine-3-carboxamide]	0.004	0.709
Cc1cccc(-c2nn(C)c(C)c2-c2ccc3ncc(C(N)=O)n3c2)n1 [Example 65, 6-(1,5-dimethyl-3-(6-methylpyridin-2-yl)-1H-pyrazol-4-yl)imidazo[1,2-a]pyridine-3-carboxamide]	0.001	0.194
OCc1[nH]nc(-c2ccc(F)cc2)c1-c1ccc2nccn2c1 [Example 134, (3-(4-fluorophenyl)-4-(imidazo[1,2-a]pyridin-6-yl)-1H-pyrazol-5-yl)methanol]	0.027	13.1
Cc1cccc(-c2nn(C)c(C(C)C)c2-c2ccc3ncc(C#N)n3c2)n1 [Example 116, 6-(5-isopropyl-1-methyl-3-(6-methylpyridin-2-yl)-1H-pyrazol-4-yl)imidazo[1,2-a]pyridine-3-carbonitrile]	0.001	5.77
NC(=O)c1cnc2ccc(-c3c[nH]nc3-c3ccc(F)c(Cl)c3)cn12 [Example 42, 6-(3-(3-chloro-4-fluorophenyl)-1H-pyrazol-4-yl)imidazo[1,2-a]pyridine-3-carboxamide, TFA]	0.001	0.33
CC(=O)Nc1cc(-c2c[nH]nc2-c2ccc(F)cc2)cn2ccnc12 [Example 33, N-(6-(3-(4-fluorophenyl)-1H-pyrazol-4-yl)imidazo[1,2-a]pyridin-8-yl)acetamide]	0.811	7.06
CC(=O)Nc1cc(-c2c(-c3ccc(F)cc3)nn3c2COCC3)ccn1 [Example 112, N-(4-(2-(4-fluorophenyl)-6,7-dihydro-4H-pyrazolo[5,1-c][1,4]oxazin-3-yl)pyridin-2-yl)acetamide]	0.011	0.105
Cc1cccc(-c2nn(C)cc2-c2ccc3ncc(C#N)n3n2)n1 [Example 25, 6-(1-methyl-3-(6-methylpyridin-2-yl)-1H-pyrazol-4-yl)imidazo[1,2-b]pyridazine-3-carbonitrile]	0.003	9.74
Cc1cccc(-c2c(-c3ccc4ncc(C#N)n4c3)cnn2C2CC2)n1 [Example 22, 6-(1-cyclopropyl-5-(6-methylpyridin-2-yl)-1H-pyrazol-4-yl)imidazo[1,2-a]pyridine-3-carbonitrile]	0.035	7.55
Fc1ccc(-c2n[nH]cc2-c2ccn3ncnc3c2)cc1 [Example 29, 7-(3-(4-fluorophenyl)-1H-pyrazol-4-yl)-[1,2,4]triazolo[1,5-a]pyridine]	0.003	1.1
Fc1ccc(-c2n[nH]c(C3CC3)c2-c2ccc3nccn3c2)cc1 [Example 86, 6-(5-cyclopropyl-3-(4-fluorophenyl)-1H-pyrazol-4-yl)imidazo [1,2-a]pyridine]	0.004	14.6
Cc1cccc(-c2nn(C)cc2-c2ccc3ncc(C#N)n3c2)n1 [Example 23, 6-(1-methyl-3-(6-methylpyridin-2-yl)-1H-pyrazol-4-yl)imidazo[1,2-a]pyridine-3-carbonitrile]	0.001	2.48
NC(=O)c1cnc2ccc(-c3c(-c4ccc(F)cc4)nn4c3COCC4)cn12 [Example 111, 6-(2-(4-fluorophenyl)-6,7-dihydro-4H-pyrazolo[5,1-c][1,4]oxazin-3-yl)imidazo[1,2-a]pyridine-3-carboxamide]	0.002	0.577
CCOC(=O)c1cnc2ccc(-c3cn(C)nc3-c3cccc(C)n3)cn12 [Example 51, ethyl 6-(1-methyl-3-(6-methylpyridin-2-yl)-1H-pyrazol-4-yl)imidazo[1,2-a]pyridine-3-carboxylate]	0.001	2.23
CC(C)c1[nH]nc(-c2ccc(F)cc2)c1-c1ccc2[nH]ncc2c1 [Example 70, 5-(3-(4-fluorophenyl)-5-isopropyl-1H-pyrazol-4-yl)-1H-indazole]	0.001	6.1
Cn1cc(-c2ccc3ncc(C(N)=O)n3c2)c(-c2cccc(C(F)(F)F)n2)n1 [Example 10, 6-(1-methyl-3-(6-(trifluoromethyl)pyridin-2-yl)-1H-pyrazol-4-yl)imidazo[1,2-a]pyridine-3-carboxamide]	0.001	8.87
CC(C)c1[nH]nc(-c2ccc(F)cc2)c1-c1ccc2ncc(C(N)=O)n2c1 [Example 68, 6-(3-(4-fluorophenyl)-5-isopropyl-1H-pyrazol-4-yl) imidazo [1,2-a]pyridine-3-carboxamide]	0.001	0.176
Cc1cccc(-c2n[nH]c(C(C)C)c2-c2ccc3ncc(C(N)=O)n3c2)n1 [Example 115, 6-(5-isopropyl-3-(6-methylpyridin-2-yl)-1H-pyrazol-4-yl)imidazo[1,2-a]pyridine-3-carboxamide]	0.001	0.009
N#Cc1cnc2ccc(-c3c[nH]nc3-c3ccc(F)cc3)nn12 [Example 13, 6-(3-(4-fluorophenyl)-1H-pyrazol-4-yl)imidazo [1,2-b]pyridazine-3-carbonitrile]	0.007	0.101
Cc1cc(-c2n[nH]cc2-c2ccc3ncc(C#N)n3c2)ccc1F [Example 49, 6-(3-(4-fluoro-3-methylphenyl)-1H-pyrazol-4-yl)imidazo[1,2-a]pyridine-3-carbonitrile]	0.001	0.104
Fc1ccc(-c2n[nH]cc2-c2ccc3ncc(F)n3c2)cc1 [Example 56, 3-fluoro-6-(3-(4-fluorophenyl)-1H-pyrazol-4-yl)imidazo[1,2-a]pyridine]	0.007	0.533
Cc1cc(-c2n[nH]c(C3CC3)c2-c2ccc3ncc(C(N)=O)n3c2)ccc1F [Example 100, 6-(5-cyclopropyl-3-(4-fluoro-3-methylphenyl)-1H-pyrazol-4-yl)imidazo[1,2-a]pyridine-3-carboxamide]	0.001	0.094
Cc1cccc(-c2n[nH]c(C3CC3)c2-c2ccc3ncc(C#N)n3c2)n1 [Example 121, 6-(5-cyclopropyl-3-(6-methylpyridin-2-yl)-1H-pyrazol-4-yl)imidazo[1,2-a]pyridine-3-carbonitrile]	0.001	0.216
Fc1ccc(-c2n[nH]cc2-c2cc(F)c3nccn3c2)cc1 [Example 30, 8-fluoro-6-(3-(4-fluorophenyl)-1H-pyrazol-4-yl)imidazo[1,2-a]pyridine]	0.591	10.3
